Values after ≈ are worked out from the molar mass of the structure shown.
What was measured:
[1] = Metabolic stability in human hepatic microsomes assessed as compound turnover at 5 uM in presence of NADPH after 30 mins; assay type: ADME; conditions: liver microsomes, read-out: Activity
[2] = Metabolic stability in human hepatic microsomes assessed as compound turnover at 5 uM in absence of NADPH after 30 mins; assay type: ADME; conditions: liver microsomes, read-out: Activity
[3] = Metabolic stability in rat hepatic microsomes assessed as compound turnover at 5 uM in absence of NADPH after 30 mins; assay type: ADME; conditions: liver microsomes, read-out: Activity
Caco-2 [4] = assay: (§1) Apparent permeability from apical to basolateral side of the human Caco2 cells; assay type: ADME, cell-based
[5] = Metabolic stability in rat hepatic microsomes assessed as compound turnover at 5 uM in presence of NADPH after 30 mins; assay type: ADME; conditions: liver microsomes, read-out: Activity
Caco-2 [6] = assay: (§2) Apparent permeability from basolateral to apical side of human Caco2 cells; assay type: ADME, cell-based
[7] = target: T1, Mitogen-activated protein kinase 14 (Homo sapiens, UniProt Q16539); assay: Inhibition of p38alpha in human whole blood assessed as reduction in TNF-alpha production by ELISA
T1 sequence (Q16539 whole entry): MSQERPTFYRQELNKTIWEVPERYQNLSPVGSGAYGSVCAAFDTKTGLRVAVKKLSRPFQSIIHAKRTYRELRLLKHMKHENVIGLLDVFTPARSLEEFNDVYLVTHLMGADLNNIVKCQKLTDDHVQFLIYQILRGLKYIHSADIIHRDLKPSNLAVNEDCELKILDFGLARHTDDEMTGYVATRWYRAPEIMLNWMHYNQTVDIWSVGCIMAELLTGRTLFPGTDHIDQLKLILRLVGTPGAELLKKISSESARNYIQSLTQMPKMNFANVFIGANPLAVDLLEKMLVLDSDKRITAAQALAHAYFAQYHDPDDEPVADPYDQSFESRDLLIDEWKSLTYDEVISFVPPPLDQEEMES

CHO = assay: Cytotoxicity against CHO cells; assay type: cell-based; conditions: Cricetulus griseus
[8] = Cmax in rat at 1 mg/kg, iv; assay type: ADME, organism-based; design: dose 1 mg/kg, route intravenous; conditions: in vivo
[9] = AUC (0 to infinity) in rat at 1 mg/kg, iv; assay type: ADME, organism-based; design: time infinity, dose 1 mg/kg, route intravenous; conditions: plasma
[10] = Mean residence time in rat at 1 mg/kg, iv; assay type: ADME, organism-based; design: dose 1 mg/kg, route intravenous; conditions: in vivo
[11] = Volume of distribution at steady state in rat at 1 mg/kg, iv; assay type: ADME, organism-based; design: dose 1 mg/kg, route intravenous; conditions: in vivo, read-out: Vdss
[12] = Clearance in rat at 1 mg/kg, iv; assay type: ADME, organism-based; design: dose 1 mg/kg, route intravenous; conditions: in vivo
[13] = Terminal half life in rat at 1 mg/kg, iv; assay type: ADME, organism-based; design: dose 1 mg/kg, route intravenous; conditions: in vivo, read-out: beta t1/2 (converted)
Rattus norvegicus = species: Rattus norvegicus; assay: Hepatic blood flow in rat; assay type: ADME, organism-based, Liver
[14] = Cmax in rat at 10 mg/kg, po; assay type: ADME, organism-based; design: dose 10 mg/kg, route oral; conditions: in vivo
[15] = AUC (0 to infinity) in rat at 10 mg/kg, po; assay type: ADME, organism-based; design: time infinity, dose 10 mg/kg, route oral; conditions: plasma
[16] = Oral bioavailability in rat at 10 mg/kg; assay type: ADME, organism-based; conditions: in vivo
[17] = Cytotoxicity against CHO cells at 200 uM; assay type: cell-based, Cricetulus griseus; conditions: chinese hamster, read-out: INH
[18] = target: T1, Mitogen-activated protein kinase 14; assay: Inhibition of human p38alpha using biotinylated ATF2 substrate by FRET assay
[19] = target: RAF proto-oncogene serine/threonine-protein kinase (Homo sapiens, UniProt P04049); assay: Inhibition of human c-RAF
RAF proto-oncogene serine/threonine-protein kinase, sequence (P04049 whole entry): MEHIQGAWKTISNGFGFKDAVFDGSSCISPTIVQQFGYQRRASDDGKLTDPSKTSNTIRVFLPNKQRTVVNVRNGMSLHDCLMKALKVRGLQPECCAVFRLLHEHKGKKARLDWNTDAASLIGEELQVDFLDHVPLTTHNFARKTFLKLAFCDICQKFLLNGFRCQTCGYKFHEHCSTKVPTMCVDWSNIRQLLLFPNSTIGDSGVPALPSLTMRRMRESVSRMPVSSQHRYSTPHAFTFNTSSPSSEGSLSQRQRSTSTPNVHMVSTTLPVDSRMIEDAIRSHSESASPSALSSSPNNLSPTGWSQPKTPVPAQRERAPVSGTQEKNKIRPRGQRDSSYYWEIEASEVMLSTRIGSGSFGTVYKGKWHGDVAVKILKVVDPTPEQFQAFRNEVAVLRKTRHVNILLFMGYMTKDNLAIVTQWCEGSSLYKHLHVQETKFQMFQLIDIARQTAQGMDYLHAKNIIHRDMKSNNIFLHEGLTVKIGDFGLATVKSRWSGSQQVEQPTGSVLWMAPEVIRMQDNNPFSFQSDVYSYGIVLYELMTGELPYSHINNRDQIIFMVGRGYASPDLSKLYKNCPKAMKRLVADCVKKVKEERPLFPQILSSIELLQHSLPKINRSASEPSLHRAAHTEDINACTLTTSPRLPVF

[20] = Solubility in aqueous media at pH 7.4; assay type: physicochemical
[21] = as §1; assay type: ADME, cell-based; conditions: caco-2
[22] = as §2; assay type: ADME, cell-based; conditions: caco-2

metabolised at 0.5 h, 5 µM [1] [%] | metabolised at 0.5 h, 5 µM [2] [%] | metabolised at 0.5 h, 5 µM [3] [%] | Papp (Caco-2 [4]) | metabolised at 0.5 h, 5 µM [5] [%] | Papp (Caco-2 [6]) | IC50 [7] [nM] | IC50 [18] [nM] | Structure (SMILES) | also measured
36 | 53 | < 5 | permeable | 18 | permeable | 20 |  | Cc1c(F)cc(C(=O)NC2CC2)cc1-c1ccc2c(c1)NC(=O)C21CCN(S(C)(=O)=O)CC1 | 
< 5 | < 5 | < 5 | permeable | < 5 | permeable | 10 |  | Cc1ccc(C(=O)NC2CC2)cc1-c1ccc2c(c1)NC(=O)C21CCC(F)(F)CC1 | IC50 (CHO): 7000 nM; Cmax [8]: 436 ng/mL; AUC(0-inf) [9]: 5020 ng·h/mL; MRT [10]: 21 h; Vd [11]: 4.2 L/kg; clearance [12]: 3.33 mL/min/kg; half-life [13]: 14.4 h
 |  |  | permeable |  | permeable |  | 4570 | Cc1ccc(C(=O)NC2CC2)cc1-c1ccc2c(c1)NC(=O)C2(CCO)CCO | 
 |  |  | permeable |  | permeable | 1100 |  | Cc1ccc(C(=O)NC2CC2)cc1-c1ncc2c(n1)NC(=O)C21CCCC1 | 
40 | 61 | 7 | permeable | 15 | permeable | 11 | 1.4 | Cc1ccc(C(=O)NC2CC2)cc1-c1ccc2c(c1)NC(=O)[C@]21CC[C@H](O)CC1 | 
57 | 29 | < 5 | permeable | 47 | permeable |  |  | Cc1ccc(C(=O)NC2CC2)cc1-c1ccc2c(c1)NC(=O)C21CCCCC1 | 
34 | 40 | < 5 | permeable | 16 | permeable | 14 | 1.65 | Cc1ccc(C(=O)NC2CC2)cc1-c1ccc2c(c1)NC(=O)C21CCOCC1 | Cmax [8]: 1530 ng/mL; IC50 [19]: 120 nM; AUC(0-inf) [9]: 2770 ng·h/mL; MRT [10]: 2.2 h; Vd [11]: 0.8 L/kg; Cmax [14]: 1310 ng/mL; AUC(0-inf) [15]: 10400 ng·h/mL; clearance [12]: 6.67 mL/min/kg; bioavailability [16]: 40%; half-life [13]: 2.7 h
17 | 17 | < 5 | permeable | 14 | permeable | 4.9 | 0.9 | Cc1ccc(C(=O)Nc2ccon2)cc1-c1ccc2c(c1)NC(=O)C21CCC(F)(F)CC1 | 
 |  |  |  |  |  |  |  | Cc1ccc(C(=O)NC2CC2)cc1-c1cnc2c(c1)NC(=O)C21CCCC1.Cl | Cmax [8]: 1240 ng/mL; AUC(0-inf) [9]: 1850 ng·h/mL; MRT [10]: 2.2 h; Vd [11]: 1.2 L/kg; Cmax [14]: 4620 ng/mL; AUC(0-inf) [15]: 12000 ng·h/mL; clearance [12]: 10 mL/min/kg; bioavailability [16]: 65%; half-life [13]: 3.9 h
8 | 7 | < 5 | permeable | 2 | permeable | 544 |  | Cc1ccc(C(=O)NC2CC2)cc1-c1cnc2c(c1)NC(=O)C2(C)C | 
8 | 16 | 5 | permeable | 0 | permeable | 86 |  | Cc1ccc(C(=O)NC2CC2)cc1-c1cnc2c(c1)NC(=O)C21CCOCC1 | cytotoxicity at 200 µM [17]: 36%
72 | 41 | < 5 | permeable | 97 | permeable | 16 | 0.08 | Cc1ccc(C(=O)NC2CC2)cc1-c1ccc2c(c1)NC(=O)C21CCSCC1 | IC50 (CHO): 16000 nM
10 | < 5 | < 5 | permeable | 21 | permeable | 64 |  | Cc1ccc(C(=O)NC2CC2)cc1-c1cc2c(cn1)C1(CCCC1)C(=O)N2 | cytotoxicity at 200 µM [17]: 29%
 |  | < 5 | permeable | 44 | permeable |  |  | Cc1ccc(C(=O)NC2CC2)cc1-c1ccc2c(c1)NC(=O)C21CCCC1 | MRT [10]: 2.1 h; solubility [20]: 3 µg/mL (≈ 8.32 µM); AUC(0-inf) [15]: 2640 ng·h/mL
19 | 16 | 11 | permeable | 33 | permeable | 128 |  | Cc1ccc(C(=O)NC2CC2)cc1-c1ccc2c(n1)NC(=O)C21CCCC1 | IC50 (CHO): 58000 nM
19 | 10 | < 5 | permeable | 16 | permeable | 69 | 1.8 | Cc1ccc(C(=O)NC2CC2)cc1-c1cnc2c(c1)NC(=O)C21CCCC1 | IC50 [19]: 105 nM; cytotoxicity at 200 µM [17]: 62%
74 | 72 | < 5 | permeable | 23 | permeable | 7 | 0.09 | Cc1ccc(C(=O)Nc2ccon2)cc1-c1ccc2c(c1)NC(=O)C21CCOCC1 | 
1 | < 5 | < 5 | permeable | 19 | permeable | 188 | 2.3 | Cc1ccc(C(=O)NC2CC2)cc1-c1cnc2c(c1)NC(=O)C21CCC(F)(F)CC1 | IC50 (CHO): 49000 nM
29 | 11 | < 5 | permeable | 30 | permeable | 150 | 7.4 | Cc1ncc(C(=O)NC2CC2)cc1-c1ccc2c(c1)NC(=O)C21CCCC1 | cytotoxicity at 200 µM [17]: 68%
65 | 81 | < 5 | permeable | 2 | permeable | 5 | 1.4 | Cc1ccc(C(=O)NC2CC2)cc1-c1ccc2c(c1)NC(=O)[C@]21CC[C@@H](O)CC1 | 
5 | 11 | < 5 |  | 0 |  | 75 |  | Cc1ccc(C(=O)NC2CC2)cc1-c1ccc2c(c1)NC(=O)C21CCS(=O)(=O)CC1 | Papp A→B [21]: 4 ×10⁻⁶ cm/s; Papp B→A [22]: 25 ×10⁻⁶ cm/s

Structure (SMILES) | metabolised at 0.5 h, 5 µM [1] [%] | metabolised at 0.5 h, 5 µM [2] [%] | metabolised at 0.5 h, 5 µM [3] [%] | Papp (Caco-2 [4]) | metabolised at 0.5 h, 5 µM [5] [%] | Papp (Caco-2 [6]) | IC50 [7] [nM] | IC50 [18] [nM] | also measured
Cc1ccc(C(=O)NC2CC2)cc1-c1ccc2c(c1)NC(=O)C21CCN(C)CC1 | 15 | 17 |  | permeable | 13 | permeable | 9.6 |  | Cmax [8]: 133 ng/mL; AUC(0-inf) [9]: 226 ng·h/mL; MRT [10]: 4.3 h; QH (Rattus norvegicus): > 85%; Vd [11]: 19.1 L/kg; Cmax [14]: 134 ng/mL; AUC(0-inf) [15]: 786 ng·h/mL; clearance [12]: 73.3 mL/min/kg; bioavailability [16]: 35%; cytotoxicity at 200 µM [17]: 40%; half-life [13]: 5.1 h

From ChEMBL document CHEMBL1821672, “Indolin-2-one p38α inhibitors II: Lead optimisation” (Bioorg Med Chem Lett, 2011)
